Patent US20220380375A1, “SUBSTITUTED AROMATIC FUSED RING DERIVATIVE AND COMPOSITION COMPRISING SAME, AND USE THEREOF” (Shenzhen TargetRx, Inc., priority 2019, published 2022)

How the values were obtained:
Assay type in all cases: cell-based
[1] = tested on: Ba/F3 FLT3-ITD^D835Y cells; test: Cytotoxicity assay (CellTiter-Glo), Ba/F3 FLT3-ITD D835Y; conditions: ratio of Ba/F3 parental IC50 to Ba/F3 FLT3-ITD^D835Y IC50
Method: (§1) Inhibitory effects of example compounds on the activity of Ba/F3 parental generation, Ba/F3 KIF5B-RET, Ba/F3 KIF5B-RET^V804M, Ba/F3 KIF5B-RET^V804L, Ba/F3 KIF5B-RET^G810R, Ba/F3 FLT3-ITD, Ba/F3 FLT3-ITD^D835Y, Ba/F3 FLT3-ITD^F691L cells were determined.
(§2) Materials and reagents: fetal bovine serum FBS (GIBCO, Cat #10099141), CellTiter-Glo® Luminescent Cell Viability Assay kit (Promega, Cat #G7572), 96-well black-wall clear flat-bottom plate (Corning®, Cat #3603).
(§3) 1. Cells in the logarithmic growth phase were harvested and counted with a […]. Cell viability was detected by a trypan blue exclusion method, ensuring that cell viability was 90% or more; 2. Cell concentration was adjusted to about 3000 cells/well; 90 μl of cell suspension was added to each well of the 96-well plate; 3. The cells in the 96-well plate were incubated overnight under the condition of 37° C., 5% CO2, and 95% humidity.
(§4) 1. A series of compound solutions were formulated by 3.16-fold serial dilution starting from a concentration of 10 μM, resulting in 9 concentrations. 10 μL of the compound solutions were added in each well of the 96-well plate seeded with cells in triplicate for each compound concentration; 2. The cells in the 96-well plate added with compounds were further incubated under the condition of 37° C., 5% CO2, and 95% humidity for 72 hrs, and then CTG analysis was carried out.
(§5) 1. CTG reagent was thawed, and the cell plate was equilibrated at room temperature for 30 minutes; 2. An equal volume […] of CTG solution was added to each well; 3. The cell plate was shaken on an orbital shaker for 5 minutes to lyse the cells; 4. The cell plate was placed at RT for 20 minutes to stabilize the luminescence signal; 5. Luminescence value was read.
(§6) Data were Analyzed by GraphPad Prism 5.0 Software, and Fitted by Nonlinear S-Curve Regression to obtain a dose-response curve, from which IC50 values were calculated.
(§7) Cell survival rate (%)=(luminescence value of drug to be tested−luminescence value of culture medium control)/(luminescence value of cell control−luminescence value of culture medium control)×100%.

Ba/F3 KIF5B-RET cells [2] = test: Cytotoxicity assay (CellTiter-Glo), Ba/F3 KIF5B-RET; conditions: ratio of Ba/F3 parental IC50 to Ba/F3 KIF5B-RET IC50
Method: as §1, §2, §3, §4, §5, §6, §7

Ba/F3 KIF5B-RET cells [3] = target: T1, Ba/F3 KIF5B-RET cells (Homo sapiens, UniProt P07949); test: as above; conditions: CellTiter-Glo, 72 hrs; read-out: Ba/F3 KIF5B-RET IC50
T1 construct: Ba/F3 KIF5B-RET IC50 (nM); other: CellTiter-Glo, 72 hrs; fused on or other part: P33176 (Kinesin-1 heavy chain)
Method: as §1, §2, §3, §4, §5, §6, §7

Ba/F3 FLT3-ITD cells [4] = target: T2, Ba/F3 FLT3-ITD cells (Homo sapiens, UniProt P36888, cells depend on it, form not given); test: Cytotoxicity assay (CellTiter-Glo), Ba/F3 FLT3-ITD; conditions: CellTiter-Glo, 72 hrs; read-out: Ba/F3 FLT3-ITD IC50
T2 construct: Ba/F3 FLT3-ITD IC50 (nM); other: CellTiter-Glo, 72 hrs
T2 sequence (P36888 1-993): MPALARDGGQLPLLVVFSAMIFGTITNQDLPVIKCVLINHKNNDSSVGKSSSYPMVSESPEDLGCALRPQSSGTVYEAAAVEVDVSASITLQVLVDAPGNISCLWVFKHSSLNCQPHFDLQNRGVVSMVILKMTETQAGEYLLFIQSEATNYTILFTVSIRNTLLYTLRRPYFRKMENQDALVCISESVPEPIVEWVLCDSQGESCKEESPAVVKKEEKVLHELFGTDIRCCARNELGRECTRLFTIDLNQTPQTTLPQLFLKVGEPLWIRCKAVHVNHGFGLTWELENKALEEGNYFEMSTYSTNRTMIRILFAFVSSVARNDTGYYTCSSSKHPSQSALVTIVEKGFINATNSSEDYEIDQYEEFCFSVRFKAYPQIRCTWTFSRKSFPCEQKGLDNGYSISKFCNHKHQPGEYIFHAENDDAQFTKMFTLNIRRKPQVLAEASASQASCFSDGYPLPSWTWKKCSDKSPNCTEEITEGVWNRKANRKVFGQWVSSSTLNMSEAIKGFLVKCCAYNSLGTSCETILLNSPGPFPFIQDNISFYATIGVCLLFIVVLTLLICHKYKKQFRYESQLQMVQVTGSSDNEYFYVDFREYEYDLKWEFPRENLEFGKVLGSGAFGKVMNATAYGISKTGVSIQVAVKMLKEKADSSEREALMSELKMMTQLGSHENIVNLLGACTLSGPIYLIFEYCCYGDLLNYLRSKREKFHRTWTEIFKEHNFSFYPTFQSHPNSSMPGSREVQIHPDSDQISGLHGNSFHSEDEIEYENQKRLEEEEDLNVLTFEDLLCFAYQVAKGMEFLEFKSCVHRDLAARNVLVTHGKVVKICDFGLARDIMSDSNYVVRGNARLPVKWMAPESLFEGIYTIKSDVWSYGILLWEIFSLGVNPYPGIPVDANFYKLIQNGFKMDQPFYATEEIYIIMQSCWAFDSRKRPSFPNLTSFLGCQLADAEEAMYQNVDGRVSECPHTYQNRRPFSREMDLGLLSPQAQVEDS
Method: as §1, §2, §3, §4, §5, §6, §7

Ba/F3 FLT3-ITD cells [5] = test: Cytotoxicity assay (CellTiter-Glo), Ba/F3 FLT3-ITD; conditions: ratio of Ba/F3 parental IC50 to Ba/F3 FLT3-ITD IC50
Method: as §1, §2, §3, §4, §5, §6, §7

T1 sequence (P07949 whole entry, change not shown, the tested form may be a part): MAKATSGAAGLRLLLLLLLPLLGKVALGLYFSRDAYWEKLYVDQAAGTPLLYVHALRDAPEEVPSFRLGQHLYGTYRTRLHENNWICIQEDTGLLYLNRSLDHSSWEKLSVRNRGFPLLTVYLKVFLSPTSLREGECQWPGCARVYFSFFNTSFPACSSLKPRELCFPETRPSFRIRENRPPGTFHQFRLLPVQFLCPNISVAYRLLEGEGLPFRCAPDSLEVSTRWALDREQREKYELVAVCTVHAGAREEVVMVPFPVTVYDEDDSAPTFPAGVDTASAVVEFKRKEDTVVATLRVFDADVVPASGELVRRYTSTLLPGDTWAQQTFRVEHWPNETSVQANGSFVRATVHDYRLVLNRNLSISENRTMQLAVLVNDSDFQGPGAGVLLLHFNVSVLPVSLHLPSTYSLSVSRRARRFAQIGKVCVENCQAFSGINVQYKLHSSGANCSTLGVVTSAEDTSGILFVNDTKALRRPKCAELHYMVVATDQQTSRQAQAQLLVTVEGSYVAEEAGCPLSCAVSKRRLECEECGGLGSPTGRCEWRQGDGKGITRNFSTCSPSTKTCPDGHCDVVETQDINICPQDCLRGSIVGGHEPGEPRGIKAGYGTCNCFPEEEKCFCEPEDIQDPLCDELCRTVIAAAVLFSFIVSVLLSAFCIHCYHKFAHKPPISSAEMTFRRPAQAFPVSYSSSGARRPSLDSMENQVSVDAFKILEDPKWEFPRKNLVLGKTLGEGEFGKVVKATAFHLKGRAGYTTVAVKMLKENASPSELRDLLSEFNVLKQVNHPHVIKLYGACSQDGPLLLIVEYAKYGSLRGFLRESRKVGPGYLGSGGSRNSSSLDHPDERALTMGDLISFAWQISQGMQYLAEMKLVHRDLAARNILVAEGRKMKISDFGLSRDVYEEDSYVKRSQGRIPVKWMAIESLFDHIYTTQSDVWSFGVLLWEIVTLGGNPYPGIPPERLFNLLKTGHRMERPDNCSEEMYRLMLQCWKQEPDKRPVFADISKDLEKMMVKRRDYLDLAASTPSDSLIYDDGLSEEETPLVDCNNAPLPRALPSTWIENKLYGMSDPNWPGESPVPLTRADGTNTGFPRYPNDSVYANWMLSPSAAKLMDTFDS

CC(C)n1nc(-c2ccc(CC(=O)Nc3cc(C(C)(C)C(F)(F)F)on3)cn2)c2c(N)ncnc21 [Compound T-7, 2-(6-(4-amino-1-isopropyl-1H-pyrazolo[3,4-d]pyrimidin-3-yl)pyridin-3-yl)-N-(5-(1,1,1-trifluoro-2-methylprop-2-yl)isoxazol-3-yl)acetamide]
Ba/F3 FLT3-ITD^D835Y Selectivity on parental generation [1]: 32.63
Ba/F3 KIF5B-RET Selectivity on parental generation (Ba/F3 KIF5B-RET cells [2]): 71.2
GI50 (Ba/F3 KIF5B-RET cells [3]): 4.61 nM
GI50 (Ba/F3 FLT3-ITD cells [4]): 0.1 nM
Ba/F3 FLT3-ITD Selectivity on parental generation (Ba/F3 FLT3-ITD cells [5]): 3280.6

CC(C)n1nc(-c2ccc(NC(=O)Nc3cc(C(F)(F)F)ccc3F)cc2)c2c(N)ncnc21 [AD80, reference compound]
Ba/F3 FLT3-ITD^D835Y Selectivity on parental generation [1]: 21.82
Ba/F3 KIF5B-RET Selectivity on parental generation (Ba/F3 KIF5B-RET cells [2]): 370.7
GI50 (Ba/F3 KIF5B-RET cells [3]): 2.19 nM
GI50 (Ba/F3 FLT3-ITD cells [4]): 0.67 nM
Ba/F3 FLT3-ITD Selectivity on parental generation (Ba/F3 FLT3-ITD cells [5]): 1211.9

CC(C)n1cc(-c2ccc(CC(=O)Nc3cc(C(C)(C)C(F)(F)F)on3)cc2)c2c(N)ncnc21 [Compound T-3, 2-(4-(4-amino-7-isopropyl-7H-pyrrolo[2,3-d]pyrimidin-5-yl)phenyl)-N-(5-(1,1,1-trifluoro-2-methylprop-2-yl)isoxazol-3-yl)acetamide]
Ba/F3 FLT3-ITD^D835Y Selectivity on parental generation [1]: 218.67
Ba/F3 KIF5B-RET Selectivity on parental generation (Ba/F3 KIF5B-RET cells [2]): 1249.0
GI50 (Ba/F3 KIF5B-RET cells [3]): 0.58 nM
GI50 (Ba/F3 FLT3-ITD cells [4]): 0.1 nM
Ba/F3 FLT3-ITD Selectivity on parental generation (Ba/F3 FLT3-ITD cells [5]): 7244.4

CC(C)n1nc(-c2ccc(CC(=O)Nc3cc(C(C)(C)C(F)(F)F)no3)cc2)c2c(N)ncnc21 [Compound T-8, 2-(4-(4-amino-1-isopropyl-1H-pyrazolo[3,4-d]pyrimidin-3-yl)phenyl)-N-(3-(1,1,1-trifluoro-2-methylprop-2-yl)isoxazol-5-yl)acetamide]
Ba/F3 FLT3-ITD^D835Y Selectivity on parental generation [1]: 500.9
Ba/F3 KIF5B-RET Selectivity on parental generation (Ba/F3 KIF5B-RET cells [2]): 3569.9
GI50 (Ba/F3 KIF5B-RET cells [3]): 1.03 nM
GI50 (Ba/F3 FLT3-ITD cells [4]): 0.25 nM
Ba/F3 FLT3-ITD Selectivity on parental generation (Ba/F3 FLT3-ITD cells [5]): 14708

CC(C)n1nc(-c2ccc(CC(=O)Nc3cc(C(C)(C)C(F)(F)F)no3)cn2)c2c(N)ncnc21 [Compound T-9, 2-(6-(4-amino-1-isopropyl-1H-pyrazolo[3,4-d]pyrimidin-3-yl)pyridin-3-yl)-N-(3-(1,1,1-trifluoro-2-methylprop-2-yl)isoxazol-5-yl)acetamide]
Ba/F3 FLT3-ITD^D835Y Selectivity on parental generation [1]: 87.8
Ba/F3 KIF5B-RET Selectivity on parental generation (Ba/F3 KIF5B-RET cells [2]): 377.8
GI50 (Ba/F3 KIF5B-RET cells [3]): 10.9 nM
GI50 (Ba/F3 FLT3-ITD cells [4]): 5.49 nM
Ba/F3 FLT3-ITD Selectivity on parental generation (Ba/F3 FLT3-ITD cells [5]): 750.1

CC(C)n1nc(-c2ccc(NC(=O)Nc3cc(C(C)(C)C(F)(F)F)on3)cc2)c2c(N)ncnc21 [Compound T-2, 1-(4-(4-amino-1-isopropyl-1H-pyrazolo[3,4-d]pyrimidin-3-yl)phenyl)-3-(5-(1,1,1-trifluoro-2-methylprop-2-yl)isoxazol-3-yl)urea]
Ba/F3 FLT3-ITD^D835Y Selectivity on parental generation [1]: 35.48
Ba/F3 KIF5B-RET Selectivity on parental generation (Ba/F3 KIF5B-RET cells [2]): 2111.4
GI50 (Ba/F3 KIF5B-RET cells [3]): 0.16 nM
GI50 (Ba/F3 FLT3-ITD cells [4]): 0.41 nM
Ba/F3 FLT3-ITD Selectivity on parental generation (Ba/F3 FLT3-ITD cells [5]): 824.0

CC(C)n1nc(-c2ccc(CC(=O)Nc3cc(C(C)(C)C(F)(F)F)on3)c(F)c2)c2c(N)ncnc21 [Compound T-6, 2-(4-(4-amino-1-isopropyl-1H-pyrazolo[3,4-d]pyrimidin-3-yl)-2-fluorophenyl)-N-(5-(1,1,1-trifluoro-2-methylprop-2-yl)isoxazol-3-yl)acetamide]
Ba/F3 FLT3-ITD^D835Y Selectivity on parental generation [1]: 193.58
Ba/F3 KIF5B-RET Selectivity on parental generation (Ba/F3 KIF5B-RET cells [2]): 6759.6
GI50 (Ba/F3 KIF5B-RET cells [3]): 0.31 nM
GI50 (Ba/F3 FLT3-ITD cells [4]): 0.4 nM
Ba/F3 FLT3-ITD Selectivity on parental generation (Ba/F3 FLT3-ITD cells [5]): 5238.7

[2H]C([2H])([2H])C(n1nc(-c2ccc(CC(=O)Nc3cc(C(C)(C)C(F)(F)F)no3)cc2)c2c(N)ncnc21)C([2H])([2H])[2H] [Compound T-11, 2-(4-(4-amino-1-(propan-2-yl-1,1,1,3,3,3-d6)-1H-pyrazolo[3,4-d]pyrimidin-3-yl)phenyl)-N-(3-(1,1,1-trifluoro-2-methylpropan-2-yl)isoxazol-5-yl)acetamide]
Ba/F3 FLT3-ITD^D835Y Selectivity on parental generation [1]: 307.7
Ba/F3 KIF5B-RET Selectivity on parental generation (Ba/F3 KIF5B-RET cells [2]): 4236.2
GI50 (Ba/F3 KIF5B-RET cells [3]): 1.3 nM
GI50 (Ba/F3 FLT3-ITD cells [4]): 0.73 nM
Ba/F3 FLT3-ITD Selectivity on parental generation (Ba/F3 FLT3-ITD cells [5]): 7543.8

CC(C)n1nc(-c2ccc(CC(=O)Nc3cc(C(C)(C)C(F)(F)F)on3)cc2)c2c(N)ncnc21 [Compound T-1, 2-(4-(4-amino-1-isopropyl-1H-pyrazolo[3,4-d]pyrimidin-3-yl)phenyl)-N-(5-(1,1,1-trifluoro-2-methylprop-2-yl)isoxazol-3-yl)acetamide]
Ba/F3 FLT3-ITD^D835Y Selectivity on parental generation [1]: 137.97
Ba/F3 KIF5B-RET Selectivity on parental generation (Ba/F3 KIF5B-RET cells [2]): 10802.6
GI50 (Ba/F3 KIF5B-RET cells [3]): 0.15 nM
GI50 (Ba/F3 FLT3-ITD cells [4]): 0.31 nM
Ba/F3 FLT3-ITD Selectivity on parental generation (Ba/F3 FLT3-ITD cells [5]): 5227.1

CC(C)c1cc(-c2ccc(CC(=O)Nc3cc(C(C)(C)C(F)(F)F)on3)cc2)c2c(N)ncnn12 [Compound T-5, 2-(4-(4-amino-7-isopropylpyrrolo[2,1-f][1,2,4]triazin-5-yl)phenyl)-N-(5-(1,1,1-trifluoro-2-methylprop-2-yl)isoxazol-3-yl)acetamide]
Ba/F3 FLT3-ITD^D835Y Selectivity on parental generation [1]: 133.6
Ba/F3 KIF5B-RET Selectivity on parental generation (Ba/F3 KIF5B-RET cells [2]): 1660.8
GI50 (Ba/F3 KIF5B-RET cells [3]): 2.88 nM
GI50 (Ba/F3 FLT3-ITD cells [4]): 1.89 nM
Ba/F3 FLT3-ITD Selectivity on parental generation (Ba/F3 FLT3-ITD cells [5]): 2530.7

CC(C)c1nc(-c2ccc(CC(=O)Nc3cc(C(C)(C)C(F)(F)F)on3)cc2)c2c(N)ncnn12 [Compound T-10, 2-(4-(4-amino-7-isopropylimidazo[5,1-f][1,2,4]triazin-5-yl)phenyl)-N-(5-(1,1,1-trifluoro-2-methylprop-2-yl)isoxazol-3-yl)acetamide]
Ba/F3 FLT3-ITD^D835Y Selectivity on parental generation [1]: 48.3
Ba/F3 KIF5B-RET Selectivity on parental generation (Ba/F3 KIF5B-RET cells [2]): 609.2
GI50 (Ba/F3 KIF5B-RET cells [3]): 3.68 nM
GI50 (Ba/F3 FLT3-ITD cells [4]): 0.32 nM
Ba/F3 FLT3-ITD Selectivity on parental generation (Ba/F3 FLT3-ITD cells [5]): 7006.3
